Measured values taken from PubChem BioAssay (NCI).
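48-hour exposure; five concentrations; linearly interpolated endpoints. GI50 marks 50% less growth. TGI: total growth inhibition.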

Tests used:
Assay in all cases: growth of human tumour cells (NCI), 48 h; in the data active means GI50 below about 0.43 µM; inactive means the rest
786-0 renal = tested on: 786-0 renal
A498 renal = tested on: A498 renal
A549 NSCLC = tested on: A549 NSCLC
ACHN renal = tested on: ACHN renal
BT-549 breast = tested on: BT-549 breast
CAKI-1 renal = tested on: CAKI-1 renal
CCRF-CEM leukemia = tested on: CCRF-CEM leukemia
COLO 205 colon = tested on: COLO 205 colon
DU-145 prostate = tested on: DU-145 prostate
EKVX NSCLC = tested on: EKVX NSCLC
HCC-2998 colon = tested on: HCC-2998 colon
HCT-116 colon = tested on: HCT-116 colon
HCT-15 colon = tested on: HCT-15 colon
HL-60(TB) leukemia = tested on: HL-60(TB) leukemia
HOP-62 NSCLC = tested on: HOP-62 NSCLC
HOP-92 NSCLC = tested on: HOP-92 NSCLC
HS 578T breast = tested on: HS 578T breast
HT29 colon = tested on: HT29 colon
IGROV1 ovarian = tested on: IGROV1 ovarian
K-562 leukemia = tested on: K-562 leukemia
KM12 colon = tested on: KM12 colon
LOX IMVI melanoma = tested on: LOX IMVI melanoma
M14 melanoma = tested on: M14 melanoma
MALME-3M melanoma = tested on: MALME-3M melanoma
MCF7 breast = tested on: MCF7 breast
MDA-MB-231 breast = tested on: MDA-MB-231 breast
MDA-MB-435 = tested on: MDA-MB-435
MOLT-4 leukemia = tested on: MOLT-4 leukemia
NCI-H226 lung = tested on: NCI-H226 lung
NCI-H23 lung = tested on: NCI-H23 lung
NCI-H460 lung = tested on: NCI-H460 lung
NCI-H522 lung = tested on: NCI-H522 lung
NCI/ADR-RES ovarian = tested on: NCI/ADR-RES ovarian
OVCAR-4 ovarian = tested on: OVCAR-4 ovarian
OVCAR-5 ovarian = tested on: OVCAR-5 ovarian
OVCAR-8 ovarian = tested on: OVCAR-8 ovarian
PC-3 prostate = tested on: PC-3 prostate
RPMI-8226 leukemia = tested on: RPMI-8226 leukemia
RXF 393 renal = tested on: RXF 393 renal
SF-268 CNS = tested on: SF-268 CNS
SF-295 CNS = tested on: SF-295 CNS
SF-539 CNS = tested on: SF-539 CNS
SK-MEL-2 melanoma = tested on: SK-MEL-2 melanoma
SK-MEL-28 melanoma = tested on: SK-MEL-28 melanoma
SK-MEL-5 melanoma = tested on: SK-MEL-5 melanoma
SK-OV-3 ovarian = tested on: SK-OV-3 ovarian
SN12C renal = tested on: SN12C renal
SNB-19 CNS = tested on: SNB-19 CNS
SNB-75 CNS = tested on: SNB-75 CNS
SR leukemia = tested on: SR leukemia
SW-620 colon = tested on: SW-620 colon
T-47D breast = tested on: T-47D breast
TK-10 renal = tested on: TK-10 renal
U251 CNS = tested on: U251 CNS
UACC-257 melanoma = tested on: UACC-257 melanoma
UACC-62 melanoma = tested on: UACC-62 melanoma
UO-31 renal = tested on: UO-31 renal

Cn1ccnc1C(=O)/C=C/c1ccc(NC(=O)c2ccc(F)cc2)cc1
14.2 µM: TGI (NCI-H522 lung)
12.3 µM: TGI (RPMI-8226 leukemia)
11.8 µM: TGI (ACHN renal)
inactive: GI50 (786-0 renal) 6.82 µM | GI50 (A498 renal) 5.68 µM | GI50 (A549 NSCLC) 6.75 µM | GI50 (ACHN renal) 4.85 µM | GI50 (BT-549 breast) 1.53 µM | GI50 (CAKI-1 renal) 1.63 µM | GI50 (CCRF-CEM leukemia) 1.46 µM | GI50 (COLO 205 colon) 3.39 µM | GI50 (DU-145 prostate) 1.33 µM | GI50 (EKVX NSCLC) 6.27 µM | GI50 (HCC-2998 colon) 6.99 µM | GI50 (HCT-116 colon) 1.47 µM | GI50 (HCT-15 colon) 1.38 µM | GI50 (HL-60(TB) leukemia) 2.9 µM | GI50 (HOP-62 NSCLC) 5.39 µM | GI50 (HOP-92 NSCLC) 8.15 µM | GI50 (HS 578T breast) 7.06 µM | GI50 (HT29 colon) 2.22 µM | GI50 (IGROV1 ovarian) 3.72 µM | GI50 (K-562 leukemia) 1.1 µM | GI50 (KM12 colon) 1.22 µM | GI50 (LOX IMVI melanoma) 1.31 µM | GI50 (M14 melanoma) 8.52 µM | GI50 (MALME-3M melanoma) 18.1 µM | GI50 (MCF7 breast) 1.64 µM | GI50 (MDA-MB-231 breast) 6.54 µM | GI50 (MDA-MB-435) 3.84 µM | GI50 (MOLT-4 leukemia) 6.36 µM | GI50 (NCI-H226 lung) 4.76 µM | GI50 (NCI-H23 lung) 5.89 µM | GI50 (NCI-H460 lung) 1.79 µM | GI50 (NCI-H522 lung) 5.52 µM | GI50 (NCI/ADR-RES ovarian) 5.28 µM | GI50 (OVCAR-4 ovarian) 6.37 µM | GI50 (OVCAR-5 ovarian) 6.3 µM | GI50 (OVCAR-8 ovarian) 5.88 µM | GI50 (PC-3 prostate) 5 µM | GI50 (RPMI-8226 leukemia) 1.15 µM | GI50 (RXF 393 renal) 3.33 µM | GI50 (SF-268 CNS) 4.94 µM | GI50 (SF-295 CNS) 8.15 µM | GI50 (SF-539 CNS) 2.5 µM | GI50 (SK-MEL-2 melanoma) 7.96 µM | GI50 (SK-MEL-28 melanoma) 10.1 µM | GI50 (SK-MEL-5 melanoma) 17.6 µM | GI50 (SK-OV-3 ovarian) 8.29 µM | GI50 (SN12C renal) 6.56 µM | GI50 (SNB-19 CNS) 4.96 µM | GI50 (SNB-75 CNS) 1.23 µM | GI50 (SR leukemia) 0.903 µM | GI50 (SW-620 colon) 1.39 µM | GI50 (T-47D breast) 2.02 µM | GI50 (TK-10 renal) 10.3 µM | GI50 (U251 CNS) 2.92 µM | GI50 (UACC-257 melanoma) 17.9 µM | GI50 (UACC-62 melanoma) 9.5 µM | GI50 (UO-31 renal) 3.43 µM
10.5 µM: TGI (SF-539 CNS)
> 33.3 µM: TGI (786-0 renal) | TGI (A549 NSCLC) | TGI (CAKI-1 renal) | TGI (CCRF-CEM leukemia) | TGI (DU-145 prostate) | TGI (EKVX NSCLC) | TGI (HCC-2998 colon) | TGI (HOP-92 NSCLC) | TGI (HS 578T breast) | TGI (HT29 colon) | TGI (IGROV1 ovarian) | TGI (K-562 leukemia) | TGI (M14 melanoma) | TGI (MALME-3M melanoma) | TGI (MCF7 breast) | TGI (MDA-MB-231 breast) | TGI (MDA-MB-435) | TGI (MOLT-4 leukemia) | TGI (NCI-H226 lung) | TGI (NCI-H23 lung) | TGI (NCI/ADR-RES ovarian) | TGI (OVCAR-4 ovarian) | TGI (OVCAR-5 ovarian) | TGI (OVCAR-8 ovarian) | TGI (PC-3 prostate) | TGI (SF-268 CNS) | TGI (SF-295 CNS) | TGI (SK-MEL-2 melanoma) | TGI (SK-MEL-28 melanoma) | TGI (SK-MEL-5 melanoma) | TGI (SK-OV-3 ovarian) | TGI (SN12C renal) | TGI (SNB-19 CNS) | TGI (SR leukemia) | TGI (T-47D breast) | TGI (TK-10 renal) | TGI (U251 CNS) | TGI (UACC-257 melanoma) | TGI (UACC-62 melanoma) | TGI (UO-31 renal)
31.8 µM: TGI (HL-60(TB) leukemia)
15.3 µM: TGI (RXF 393 renal)
17.1 µM: TGI (A498 renal)
12.7 µM: TGI (HCT-15 colon)
26.8 µM: TGI (HOP-62 NSCLC)
10.9 µM: TGI (KM12 colon)
8.51 µM: TGI (SW-620 colon)
7.85 µM: TGI (NCI-H460 lung)
28.7 µM: TGI (SNB-75 CNS)
5.55 µM: TGI (LOX IMVI melanoma)
12.9 µM: TGI (HCT-116 colon)
17.8 µM: TGI (COLO 205 colon)
24.7 µM: TGI (BT-549 breast)
